These results are taken from patent US20250011299A1, “PYRIDAZINYL AMINO DERIVATIVES AS ALK5 INHIBITORS” (CHIESI FARMACEUTICI S.P.A., priority 2021, published 2025).

In the assay the target is T1, human ALK5 (Homo sapiens, UniProt P36897).
T1 construct: human ALK5 (recombinant TGF β1 N-term GST-tagged, 80-end); GST (N); purchased
T1 sequence (P36897 80-503 limits assumed): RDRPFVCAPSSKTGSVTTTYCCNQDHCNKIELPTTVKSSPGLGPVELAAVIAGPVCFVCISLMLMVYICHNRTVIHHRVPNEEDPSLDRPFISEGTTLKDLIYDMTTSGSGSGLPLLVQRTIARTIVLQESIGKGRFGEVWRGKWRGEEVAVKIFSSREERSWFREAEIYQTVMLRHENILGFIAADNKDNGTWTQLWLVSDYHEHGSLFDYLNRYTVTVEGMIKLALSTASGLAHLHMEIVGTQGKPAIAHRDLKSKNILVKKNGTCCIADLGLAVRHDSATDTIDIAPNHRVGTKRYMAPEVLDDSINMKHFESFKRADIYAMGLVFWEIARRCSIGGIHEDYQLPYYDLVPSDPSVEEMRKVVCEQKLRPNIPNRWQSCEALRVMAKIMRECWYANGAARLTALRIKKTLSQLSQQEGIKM
Kind of assay: ADP-GLO Kinases assay of ALK5 enzymatic activity. The class given is biochemical. The settings on record: purified recombinant human ALK5, TGFβ1 peptide substrate, pIC50 converted to pKi by Cheng-Prusoff, high ATP protocol (15 μM) for very potent compounds, 25° C. The method, then:
The enzymatic activity of compounds of the present invention was monitored measuring the formation of ADP using the ADP-GLO Kinases assay. Following the incubation of the purified enzyme, a substrate and ATP, the produced ADP was converted into ATP, which in turn was converted into light by Ultra-Glo Luciferase. The luminescent signal positively correlated with ADP amount and kinase activity. […] Compound and ALK5 kinase were mixed and incubated for 15 mins. […] After an incubation of 120 min, the reaction was stopped, and ADP production detected with ADP-Glo kit according to manufacturer's indications. […] After an incubation of 60 min, the kinase reaction was stopped, and ADP production detected with ADP-Glo kit according to manufacturer's indications. All reaction and incubation steps were performed at 25° C. and the assays were performed in 384-well format and validated using a selection of reference compounds tested in 11-point concentration-response curve. […] Results were expressed as pIC50 (negative logarithm of IC50) and subsequently converted to pKi (negative logarithm of […]) using the Cheng-Prusoff equation. The higher the value of pKi, the greater the inhibition of ALK5 activity.

Where only a bound is given, the exact number is not on record here.

On to `CN1CCN(CCC(=O)Nc2cc(Nc3cc(-c4cc(Cl)ccc4F)nnc3SCC3CCCC(=O)O3)ccn2)CC1` (racemic) [Example 204, N-(4-{[6-(5-chloro-2-fluorophenyl)-3-{[(6-oxooxan-2-yl)methyl]sulfanyl}pyridazin-4-yl]amino}pyridin-2-yl)-3-(4-methylpiperazin-1-yl)propanamide], for which the Ki (as a rule, a dissociation constant, usually derived from enzyme kinetics or from competition with a known ligand) was at most 100 pM.
`CN1CCN(CCC(=O)Nc2cc(Nc3cc(-c4cc(Cl)ccc4F)nnc3S(C)(=O)=O)ccn2)CC1` [Example 18, N-(4-{[6-(5-chloro-2-fluorophenyl)-3-methanesulfonylpyridazin-4-yl]amino}pyridin-2-yl)-3-(4-methylpiperazin-1-yl)propanamide]: the Ki was 126 to 316 pM.
The result for `CN1CCN([C@H]2C[C@H](C(=O)Nc3cc(Nc4cc(-c5cc(Cl)ccc5F)nnc4OC4CCOC4)ccn3)C2)CC1` (single isomer, unassigned) [Example 114, N-(4-{[6-(5-chloro-2-fluorophenyl)-3-(oxolan-3-yloxy)pyridazin-4-yl]amino}pyridin-2-yl)-3-(4-methylpiperazin-1-yl)cyclobutane-1-carboxamide] reads 126 to 316 pM.
The result for `CN1CCN(CCC(=O)Nc2cc(Nc3cc(-c4cc(Cl)ccc4F)nnc3OCC(O)CO)ccn2)CC1` (centres unmarked) [Example 78, N-(4-{[6-(5-chloro-2-fluorophenyl)-3-(2,3-dihydroxypropoxy)pyridazin-4-yl]amino}pyridin-2-yl)-3-(4-methylpiperazin-1-yl)propanamide] reads at most 100 pM; that for `COc1ccc2c(Nc3cc(-c4cc(Cl)ccc4F)nnc3OCCN(C)C)ccnc2c1` [Example 39, N-[6-(5-chloro-2-fluorophenyl)-3-[2-(dimethylamino)ethoxy]pyridazin-4-yl]-7-methoxyquinolin-4-amine], 398 to 3160 pM; that for `COCC1(CN(C)c2nnc(-c3cc(Cl)ccc3F)cc2Nc2ccnc(NC(=O)CCN3CCN(C)CC3)c2)CCOC1=O` (single isomer, unassigned) [Example 202, N-(4-{[6-(5-chloro-2-fluorophenyl)-3-({[3-(methoxymethyl)-2-oxooxolan-3-yl]methyl}(methyl)amino)pyridazin-4-yl]amino}pyridin-2-yl)-3-(4-methylpiperazin-1-yl)propanamide], 126 to 316 pM.
Regarding `CN(C)CCOc1nnc(-c2cc(Cl)ccc2F)cc1Nc1ccnc2[nH]ccc12` [Example 41, 6-(5-chloro-2-fluorophenyl)-3-[2-(dimethylamino)ethoxy]-N-{1H-pyrrolo[2,3-b]pyridin-4-yl}pyridazin-4-amine], the Ki is 398 to 3160 pM.
With `COc1nnc(-c2cc(Cl)ccc2F)cc1Nc1ccc2ncsc2c1` [Example C1, [6-(5-Chloro-2-fluorophenyl)-3-methoxypyridazin-4-yl]-1,3-benzothiazol-6-amine, reference compound], the Ki was 6310 pM.
For `CN1CCN(CCC(=O)Nc2cc(Nc3cc(-c4cc(Cl)ccc4F)nnc3OCC(F)(F)F)ccn2)CC1` [Example 50, N-(4-{[6-(5-chloro-2-fluorophenyl)-3-(2,2,2-trifluoroethoxy)pyridazin-4-yl]amino}pyridin-2-yl)-3-(4-methylpiperazin-1-yl)propanamide], the Ki is at most 100 pM.
The result for `CN1CCN([C@H]2C[C@@H](C(=O)Nc3cc(Nc4cc(-c5cc(Cl)ccc5F)nnc4N(C)CC4(C)CCOC4=O)ncn3)C2)CC1` (single isomer, unassigned; enantiomer 1) [Example 143, Cis Enantiomer 1 N-(6-{[6-(5-chloro-2-fluorophenyl)-3-{methyl[(3-methyl-2-oxooxolan-3-yl)methyl]amino}pyridazin-4-yl]amino}pyrimidin-4-yl)-3-(4-methylpiperazin-1-yl)cyclobutane-1-carboxamide] reads 126 to 316 pM; that for `CN1CCN(CCC(=O)Nc2cc(Nc3cc(-c4cc(Cl)ccc4F)nnc3NCc3cccc(O)c3)ccn2)CC1` [Example 101, N-(4-{[6-(5-chloro-2-fluorophenyl)-3-{[(3-hydroxyphenyl)methyl]amino}pyridazin-4-yl]amino}pyridin-2-yl)-3-(4-methylpiperazin-1-yl)propanamide], at most 100 pM; that for `CS(=O)(=O)NCCOc1nnc(-c2cc(Cl)ccc2F)cc1Nc1ccnc(N)c1` [Example 45, N-[2-({4-[(2-aminopyridin-4-yl)amino]-6-(5-chloro-2-fluorophenyl)pyridazin-3-yl}oxy)ethyl]methanesulfonamide], at most 100 pM.
As for `COCCOc1nnc(-c2cc(Cl)ccc2F)cc1Nc1ccnc2cc(OCCN3CCN(C)CC3)ccc12` [Example 32, N-[6-(5-chloro-2-fluorophenyl)-3-(2-methoxyethoxy)pyridazin-4-yl]-7-[2-(4-methylpiperazin-1-yl)ethoxy]quinolin-4-amine], the Ki was at most 100 pM.
The result for `CN1CCN(CCC(=O)Nc2cc(Nc3cc(-c4cc(Cl)ccc4F)nnc3N(C)CCC(O)C(F)(F)F)ccn2)CC1` (centres unmarked) [Example 110, N-(4-{[6-(5-chloro-2-fluorophenyl)-3-[methyl(4,4,4-trifluoro-3-hydroxybutyl)amino]pyridazin-4-yl]amino}pyridin-2-yl)-3-(4-methylpiperazin-1-yl)propanamide] reads at most 100 pM.
Regarding `CN1CCN(CCC(=O)Nc2cc(Nc3cc(-c4cc(Cl)ccc4F)nnc3SCC3(C)CCOC3=O)ccn2)CC1` (centres unmarked) [Example 197, N-(4-{[6-(5-chloro-2-fluorophenyl)-3-{[(3-methyl-2-oxooxolan-3-yl)methyl]sulfanyl}pyridazin-4-yl]amino}pyridin-2-yl)-3-(4-methylpiperazin-1-yl)propanamide], the Ki was 126 to 316 pM.
The result for `COc1nnc(-c2cc(Cl)ccc2F)cc1Nc1ccnc(NC(=O)CN2CCN(CC(F)(F)F)CC2)c1` [Example 14, N-(4-{[6-(5-chloro-2-fluorophenyl)-3-methoxypyridazin-4-yl]amino}pyridin-2-yl)-2-[4-(2,2,2-trifluoroethyl)piperazin-1-yl]acetamide] reads at most 100 pM; that for `CN1CCN([C@H]2C[C@@H](C(=O)Nc3cc(Nc4cc(-c5cc(Cl)ccc5F)nnc4SCC4COC(C)(C)O4)ccn3)C2)CC1` (stereo partly drawn) [Example 115, Cis N-(4-{[6-(5-chloro-2-fluorophenyl)-3-{[(2,2-dimethyl-1,3-dioxolan-4-yl)methyl]sulfanyl}pyridazin-4-yl]amino}pyridin-2-yl)-3-(4-methylpiperazin-1-yl)cyclobutane-1-carboxamide], at most 100 pM; that for `CN1CC(COc2nnc(-c3cc(Cl)ccc3F)cc2Nc2ccnc(NC(=O)C3CC3)c2)C1` [Example 44, N-(4-{[6-(5-chloro-2-fluorophenyl)-3-[(1-methylazetidin-3-yl)methoxy]pyridazin-4-yl]amino}pyridin-2-yl)cyclopropanecarboxamide], 126 to 316 pM.
The result for `C[C@@H]1CN(CCC(=O)Nc2cc(Nc3cc(-c4cc(Cl)ccc4F)nnc3SCCO)ccn2)C[C@H](C)N1` [Example 178, N-(4-{[6-(5-chloro-2-fluorophenyl)-3-[(2-hydroxyethyl)sulfanyl]pyridazin-4-yl]amino}pyridin-2-yl)-3-(3,5-dimethylpiperazin-1-yl)propanamide] reads at most 100 pM; that for `O=C(Nc1cc(Nc2cc(-c3cc(Cl)ccc3F)nnc2OCCN2CCCC2)ccn1)C1CC1` [Example 54, N-(4-{[6-(5-chloro-2-fluorophenyl)-3-[2-(pyrrolidin-1-yl)ethoxy]pyridazin-4-yl]amino}pyridin-2-yl)cyclopropanecarboxamide], at most 100 pM.
